Results from patent US12410136B2, “Pyridinyl morpholine compound, preparation method therefor, and application thereof” (SHANGHAI ZHONGZE THERAPEUTICS, CO. LTD., priority 2020, dated 2025).
pKi: −log10 of the molar value.

How the values were obtained:
[1] = target: T1, 5-HT2A receptor (Homo sapiens, UniProt P28223); assay: 5-HT2A receptor binding test; details: [3H]-Ketanserin, 5-HT2A receptor expressed in HEK293 cells; read-out: Affinity of the compound for each receptor (Ki value, nM) 5-HT2A
T1 construct: expressed in transfected cells; host or cells: HEK293
T1 sequence (P28223 whole entry): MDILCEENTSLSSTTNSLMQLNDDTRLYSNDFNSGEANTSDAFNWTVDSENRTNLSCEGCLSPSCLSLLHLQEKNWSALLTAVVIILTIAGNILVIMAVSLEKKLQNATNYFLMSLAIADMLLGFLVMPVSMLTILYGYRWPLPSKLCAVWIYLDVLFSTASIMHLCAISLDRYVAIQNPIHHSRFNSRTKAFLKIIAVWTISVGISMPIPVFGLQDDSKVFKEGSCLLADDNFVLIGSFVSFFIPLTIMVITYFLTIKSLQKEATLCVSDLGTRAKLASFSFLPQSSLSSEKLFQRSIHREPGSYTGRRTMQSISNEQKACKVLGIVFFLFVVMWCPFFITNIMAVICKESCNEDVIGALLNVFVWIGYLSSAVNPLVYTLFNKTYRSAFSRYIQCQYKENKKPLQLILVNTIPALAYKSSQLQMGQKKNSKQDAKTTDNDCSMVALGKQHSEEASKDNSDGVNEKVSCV
Text: 5-HT2A Receptor Binding Test
Beckman LS-6500 multifunctional liquid scintillation counter.
Tris-HCl reaction buffer (pH 7.7) was used to resuspend in the experiment.

[2] = target: D2 receptor (Homo sapiens, UniProt P14416); assay: Dopamine D2 receptor binding test
D2 receptor, sequence (P14416 whole entry): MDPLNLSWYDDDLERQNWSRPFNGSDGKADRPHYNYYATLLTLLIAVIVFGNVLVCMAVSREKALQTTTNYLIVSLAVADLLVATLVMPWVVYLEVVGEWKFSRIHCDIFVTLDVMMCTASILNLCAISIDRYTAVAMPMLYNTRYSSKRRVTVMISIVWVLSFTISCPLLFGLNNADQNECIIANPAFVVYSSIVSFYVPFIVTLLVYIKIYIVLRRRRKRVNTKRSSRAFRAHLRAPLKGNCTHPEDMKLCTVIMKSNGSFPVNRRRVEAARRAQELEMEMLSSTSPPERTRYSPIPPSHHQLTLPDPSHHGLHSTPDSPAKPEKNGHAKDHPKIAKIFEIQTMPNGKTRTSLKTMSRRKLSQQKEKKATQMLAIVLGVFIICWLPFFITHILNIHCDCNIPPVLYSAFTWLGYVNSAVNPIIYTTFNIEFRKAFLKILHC
Description: Dopamine D2 Receptor Binding Test
In this experiment, HEK293 cells were transfected with plasmid vector containing D2 receptor protein gene, and calcium phosphate transfection method was used and after transfection, the cells were cultured in a culture solution containing G418, and the cell monoclonal and radioligand binding experiments were selected, and finally a stable cell line which could stably express D2 receptor protein was obtained.
HeK-293 cells were infected with recombinant viruses containing the above various genes respectively, and after 48-72 hours, the receptor proteins were expressed in large quantities on the membrane, and the cells were centrifuged at 1000 rpm for 5 min and then the culture solution was discarded, and the cells were collected, and stored in a −20° C. refrigerator for later use. Tris-HCl reaction buffer (pH=7.5) was used to resuspend in the experiment.
On the Millipore cell sample collector, the mixture was quickly filtrated under reduced pressure through GF/C glass fiber filter paper, and eluted with 3 mL of eluent (50 mMTris-HCl, pH 7.5) for 3 times, then dried under microwave for 5 to 6 min. The filter paper was moved into a 0.5 mL centrifuge tube, and 500 μL of lipid-soluble scintillation solution was added. The mixture was kept in the dark for more than 30 min, and the radioactivity intensity was determined by counting. […] Two replicate tubes were made for each experiment of compound, and two separate experiments were performed.
Two tubes were tested for each concentration and two independent tests were performed for each compound.

[3] = target: T2, H1 receptor (Homo sapiens, UniProt P35367); assay: H1 receptor binding test; details: 1 nM [3H]pyrilamine, HEK-293 cell membrane homogenate; read-out: Affinity of the compound for H1 receptor (Ki value, nM) H1
T2 construct: expressed in transfected cells; host or cells: HEK-293
T2 sequence (P35367 whole entry): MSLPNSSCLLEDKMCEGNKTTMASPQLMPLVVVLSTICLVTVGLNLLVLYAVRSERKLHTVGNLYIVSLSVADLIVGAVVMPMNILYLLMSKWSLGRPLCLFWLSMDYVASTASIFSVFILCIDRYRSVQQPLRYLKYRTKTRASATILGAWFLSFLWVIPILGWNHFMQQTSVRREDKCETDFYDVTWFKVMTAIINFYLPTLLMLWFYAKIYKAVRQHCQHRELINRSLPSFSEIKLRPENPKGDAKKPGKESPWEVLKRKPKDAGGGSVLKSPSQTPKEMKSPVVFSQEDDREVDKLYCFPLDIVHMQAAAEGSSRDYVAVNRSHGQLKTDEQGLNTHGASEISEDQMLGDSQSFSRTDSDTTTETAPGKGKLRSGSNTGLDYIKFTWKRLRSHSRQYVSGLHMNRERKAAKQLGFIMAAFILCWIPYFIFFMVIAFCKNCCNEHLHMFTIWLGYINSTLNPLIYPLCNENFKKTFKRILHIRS
Description: Non-specific binding was determined in the presence of 1 μM pyrilamine.

[4] = target: T3, human recombinant D3 receptor (Homo sapiens, UniProt P35462); assay: Dopamine D3 receptor binding test; details: [3H]methyl-spiperone 0.3 nM, human recombinant D3 receptor expressed in CHO cells; read-out: Affinity of the compound for each receptor (Ki value, nM) D3
T3 construct: expressed in transfected cells; host or cells: CHO
T3 sequence (P35462 whole entry): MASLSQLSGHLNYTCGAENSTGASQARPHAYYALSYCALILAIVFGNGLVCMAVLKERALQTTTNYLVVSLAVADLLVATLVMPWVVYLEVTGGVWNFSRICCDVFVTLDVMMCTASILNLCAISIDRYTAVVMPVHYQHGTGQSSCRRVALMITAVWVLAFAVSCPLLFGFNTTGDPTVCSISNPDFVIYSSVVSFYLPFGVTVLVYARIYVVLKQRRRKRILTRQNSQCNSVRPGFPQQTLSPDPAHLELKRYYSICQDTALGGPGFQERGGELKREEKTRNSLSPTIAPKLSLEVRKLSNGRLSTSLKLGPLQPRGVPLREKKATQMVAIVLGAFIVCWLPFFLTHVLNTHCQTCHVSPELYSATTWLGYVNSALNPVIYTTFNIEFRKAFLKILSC
Description: Dopamine D3 Receptor Binding Test
[^3H]methyl-spiperone (0.3 nM) was used as the ligand, and (+)-butaclamol (10 μM) was used to determine the non-specific binding, and the binding assay was performed on human recombinant D3 receptor (expressed in CHO cells).

SMILES: CNC(=O)N[C@H]1CC[C@H](CCN2CCN(c3cc(-c4ccc(F)cc4)cc(N4CCOCC4)n3)CC2)CC1 [II-4, 1-(trans-4-(2-(4-(4-(4-fluorophenyl)-6-morpholinopyridin-2-yl)piperazin-1-yl)ethyl)cyclohexyl)-3-methylurea]
- Ki [1]: 0.9 nM
- pKi [2]: 8.55
- Ki [3]: 540 nM
- Ki [4]: 0.3 nM

SMILES: COc1ccc(-c2cc(N3CCOCC3)nc(N3CCN(CC[C@H]4CC[C@H](NC(=O)N5CCN(C)CC5)CC4)CC3)c2)cc1 [III-4, N-(trans-4-(2-(4-(4-(4-methoxyphenyl)-6-morpholinopyridin-2-yl)piperazin-1-yl)ethyl)cyclohexyl)-4-methylpiperazine-1-carboxamide]
- Ki [1]: 6.6 nM
- pKi [2]: 7.93
- Ki [3]: 980 nM

SMILES: CCC(=O)N[C@H]1CC[C@H](CCN2CCN(c3cc(-c4cccnc4)cc(N4CCOCC4)n3)CC2)CC1 [IV-1]
- Ki [1]: 2.7 nM
- pKi [2]: 8.60
- Ki [3]: > 1000 nM
- Ki [4]: 0.05 nM

SMILES: CC(C)N(C(=O)N[C@H]1CC[C@H](CCN2CCN(c3cc(-c4cccnc4)cc(N4CCOCC4)n3)CC2)CC1)C(C)C [IV-4]
- Ki [1]: 8.7 nM
- pKi [2]: 8.77
- Ki [3]: 670 nM
- Ki [4]: 0.08 nM

SMILES: CN(C)C(=O)N[C@H]1CC[C@H](CCN2CCN(c3cc(-c4cccnc4)cc(N4CCOCC4)n3)CC2)CC1 [IV-3]
- Ki [1]: 3.6 nM
- pKi [2]: 8.70
- Ki [3]: 790 nM
- Ki [4]: 0.1 nM

SMILES: COc1ccc(-c2cc(N3CCOCC3)nc(N3CCN(CC[C@H]4CC[C@H](NC(=O)N5CCCC5)CC4)CC3)c2)cc1 [III-1, N-(trans-4-(2-(4-(4-(4-methoxyphenyl)-6-morpholinopyridin-2-yl)piperazin-1-yl)ethyl)cyclohexyl)tetrahydropyrrole-1-carboxamide]
- Ki [1]: 10.8 nM
- pKi [2]: 8.49
- Ki [3]: > 1000 nM
- Ki [4]: 0.2 nM

SMILES: CCC(=O)N[C@H]1CC[C@H](CCN2CCN(c3cc(-c4ccc[nH]4)cc(N4CCOCC4)n3)CC2)CC1 [VII-1, N-(trans-4-(2-(4-(6-morpholino-4-(1H-pyrrol-2-yl)pyridin-2-yl)piperazin-1-yl)ethyl)cyclohexyl)propionamide]
- Ki [1]: 3.2 nM
- pKi [2]: 8.35
- Ki [3]: 460 nM
- Ki [4]: 0.28 nM

SMILES: COCC(=O)N[C@H]1CC[C@H](CCN2CCN(c3cc(-c4ccco4)cc(N4CCOCC4)n3)CC2)CC1 [Compound V-2, N-(trans-4-(2-(4-(4-(furan-2-yl)-6-morpholinopyridin-2-yl)piperazin-1-yl)ethyl)cyclohexyl)-2-methoxyacetamide]
- Ki [1]: 8.8 nM
- pKi [2]: 7.82
- Ki [3]: 740 nM

SMILES: O=C(N[C@H]1CC[C@H](CCN2CCN(c3cc(-c4ccc(F)cc4)cc(N4CCOCC4)n3)CC2)CC1)c1ccccc1 [II-1, N-(trans-4-(2-(4-(4-(4-fluorophenyl)-6-morpholinopyridin-2-yl)piperazin-1-yl)ethyl)cyclohexyl)benzamide]
- Ki [1]: 2.3 nM
- pKi [2]: 8.77
- Ki [3]: 670 nM
- Ki [4]: 0.2 nM

SMILES: CC(=O)N[C@H]1CC[C@H](CCN2CCN(c3cc(-c4ccco4)cc(N4CCOCC4)n3)CC2)CC1 [Compound V-1, N-(trans-4-(2-(4-(4-(furan-2-yl)-6-morpholinopyridin-2-yl)piperazin-1-yl)ethyl)cyclohexyl)acetamide]
- Ki [1]: 1.6 nM
- pKi [2]: 8.09
- Ki [3]: 530 nM
- Ki [4]: 0.7 nM

SMILES: O=C(N[C@H]1CC[C@H](CCN2CCN(c3cc(-c4cccs4)cc(N4CCOCC4)n3)CC2)CC1)c1cccnc1 [VI-3, N-(trans-4-(2-(4-(6-morpholino-4-(thiophen-2-yl)pyridin-2-yl)piperazin-1-yl)ethyl)cyclohexyl)nicotinamide]
- Ki [1]: 1.7 nM
- pKi [2]: 8.72
- Ki [3]: 740 nM
- Ki [4]: 0.8 nM

SMILES: O=C(N[C@H]1CC[C@H](CCN2CCN(c3cc(-c4ccc[nH]4)cc(N4CCOCC4)n3)CC2)CC1)N1CCCCC1 [VII-5, N-(trans-4-(2-(4-(6-morpholino-4-(1H-pyrrol-2-yl)pyridin-2-yl)piperazin-1-yl)ethyl)cyclohexyl)piperidine-1-carboxamide]
- Ki [1]: 7.9 nM
- pKi [2]: 8.40
- Ki [3]: > 1000 nM
- Ki [4]: 0.3 nM

SMILES: COc1ccc(-c2cc(N3CCOCC3)nc(N3CCN(CC[C@H]4CC[C@H](NC(=O)N5CCOCC5)CC4)CC3)c2)cc1 [III-2, N-(trans-4-(2-(4-(4-(4-methoxyphenyl)-6-morpholinopyridin-2-yl)piperazin-1-yl)ethyl)cyclohexyl)morpholine-4-carboxamide]
- Ki [1]: 5.1 nM
- pKi [2]: 8.72
- Ki [3]: > 1000 nM
- Ki [4]: 0.07 nM

SMILES: O=C(N[C@H]1CC[C@H](CCN2CCN(c3cc(-c4ccccc4)cc(N4CCOCC4)n3)CC2)CC1)C1CCCCC1 [Compound I-5]
- Ki [1]: 1.1 nM
- pKi [2]: 8.07
- Ki [3]: > 1000 nM
- Ki [4]: 0.9 nM

SMILES: COc1ccc(-c2cc(N3CCOCC3)nc(N3CCN(CC[C@H]4CC[C@H](NC(=O)N5CCCCC5)CC4)CC3)c2)cc1 [III-3, N-(trans-4-(2-(4-(4-(4-methoxyphenyl)-6-morpholinopyridin-2-yl)piperazin-1-yl)ethyl)cyclohexyl)piperidine-1-carboxamide]
- Ki [1]: 12.5 nM
- pKi [2]: 8.34
- Ki [3]: > 1000 nM
- Ki [4]: 0.5 nM

SMILES: CC(=O)N[C@H]1CC[C@H](CCN2CCN(c3cc(-c4ccccc4)cc(N4CCOCC4)n3)CC2)CC1 [Compound I-1, N-(trans-4-(2-(4-(6-morpholino-4-phenylpyridin-2-yl)piperazin-1-yl)ethyl)cyclohexyl)acetamide]
- Ki [1]: 1.7 nM
- pKi [2]: 8.51
- Ki [3]: 760 nM
- Ki [4]: 0.2 nM

SMILES: CN(C)C(=O)N[C@H]1CC[C@H](CCN2CCN(c3cc(-c4ccco4)cc(N4CCOCC4)n3)CC2)CC1 [Compound V-3, 3-(trans-4-(2-(4-(4-(furan-2-yl)-6-morpholinopyridin-2-yl)piperazin-1-yl)ethyl)cyclohexyl)-1,1-dimethylurea]
- Ki [1]: 5 nM
- pKi [2]: 8.15
- Ki [3]: 800 nM
- Ki [4]: 0.07 nM

SMILES: O=C(N[C@H]1CC[C@H](CCN2CCN(c3cc(-c4ccccc4)cc(N4CCOCC4)n3)CC2)CC1)C1CC1 [Compound I-4, N-((trans)-4-(2-(4-(6-morpholino-4-phenylpyridin-2-yl)piperazin-1-yl)ethyl)cyclohexyl)cyclopropanecarboxamide]
- Ki [1]: 3.9 nM
- pKi [2]: 8.70
- Ki [3]: 550 nM
- Ki [4]: 0.05 nM

SMILES: CCCC(=O)N[C@H]1CC[C@H](CCN2CCN(c3cc(-c4ccccc4)cc(N4CCOCC4)n3)CC2)CC1 [Compound I-2, N-(trans-4-(2-(4-(6-morpholino-4-phenylpyridin-2-yl)piperazin-1-yl)ethyl)cyclohexyl)butyramide]
- Ki [1]: 1.9 nM
- pKi [2]: 8.92
- Ki [3]: 950 nM
- Ki [4]: 0.1 nM

SMILES: O=C(N[C@H]1CC[C@H](CCN2CCN(c3cc(-c4ccc[nH]4)cc(N4CCOCC4)n3)CC2)CC1)C1CCCCC1 [VII-3, N-(trans-4-(2-(4-(6-morpholino-4-(1H-pyrrol-2-yl)pyridin-2-yl)piperazin-1-yl)ethyl)cyclohexyl)cyclohexanecarboxamide]
- Ki [1]: 3.8 nM
- pKi [2]: 8.29
- Ki [3]: 870 nM

SMILES: CN(C)C(=O)N[C@H]1CC[C@H](CCN2CCN(c3cc(-c4ccc(F)cc4)cc(N4CCOCC4)n3)CC2)CC1 [II-5, 3-(trans-4-(2-(4-(4-(4-fluorophenyl)-6-morpholinopyridin-2-yl)piperazin-1-yl)ethyl)cyclohexyl)-1,1-dimethylurea]
- Ki [3]: 300 nM
